Laboratory results: patent publication US4168316A, “Immunosuppressive-1-(thiocarbamoyl)-2-imidazolidinone” (Northwestern University, priority 1978, dated 1979)

Columns and labels:
[1] = tested on: DNFB-induced ear swelling; assay: ear swelling assay, delayed-type contact sensitivity to 2,4-dinitro-1-fluorobenzene (DNFB); assay type: in vivo, inbred mice (C57BL/6J; (C57BL/6J×DBA/2J) F1)
Excerpt: In further proof of the activity of the purified material from Example 3 as compared with niridazole per se, there was employed the ear swelling assay of Phanuphak et al. (1), which measures delayed-type contact sensitivity of inbred mice to 2,4-dinitro-1-fluorobenzene (DNFB). The assay was done according to the following protocol: on Day 1, groups of mice, matched for sex and weight, had their abdomens shaved and received varying doses of niridazole or NIF, the purified product of Example 2. The animals were sensitized on Day 3 with 20 μl of 0.5% (v/v) DNFB in acetone: olive oil (4:1, v/v) applied to the shaved abdomen. The sensitization procedure was repeated on Day 4. On Day 8, mice were lightly anesthetized with ether and the right ear thickness measured (10^-2 ×mm) by a modified dial thickness gauge. The right ear was then challenged with 10 μl of 0.5% DNFB solution. Twenty-four hours later, the mice were again anesthetized and the thickness of the right ear was measured to determine the immune response (swelling to the DNFB challenge).

[2] = tested on: inflammation related to delayed hypersensitivity; conditions: tests on experimental animals; cited from earlier work
[3] = tested on: delayed hypersensitivity-type reactions; conditions: cited from earlier work
[4] = tested on: granuloma formation around S. mansoni eggs; assay: granuloma formation around S. mansoni eggs injected intravenously into the pulmonary microvasculature; assay type: in vivo, CF1 Swiss albino female mice; conditions: niridazole single oral dose 1 mg/kg, Day -1, p<0.005
Method: Groups of 5 weanling CF1 Swiss albino female mice (18-22 g body weight) obtained from Carworth Farms, Inc., New City, New York were treated by intravenous injection with different doses of urine fractions at varying time intervals before egg injection. Untreated mice and niridazole treated animals (1 mg/kg body weight given orally on the day before egg injection) were used as controls. […] Fifty granulomas containing eggs in their centers were measured from each experimental group and the significance of the difference was evaluated by the Student's t test.

NC(=S)N1CCNC1=O [NIF, 1-(thiocarbamoyl)-2-imidazolidinone]
suppression of ear swelling ([1]; 10^-8 -10^-10 g/kg pure (NIF) urine extracts): 50% | SUPPRESSION ([1]; Exp. II, F1 mice, 1.2 × 10^-8 g/kg ip): 48 ± 7% | EAR SWELLING (± SEM) ([1]; Exp. II, F1 mice, 1.2 × 10^-8 g/kg ip, n=5, control 30.9): 16.0 ± 2.2 10^-2 × mm | SUPPRESSION ([1]; Exp. II, F1 mice, 1.2 × 10^-10 g/kg ip): 46 ± 4% | EAR SWELLING (± SEM) ([1]; Exp. II, F1 mice, 1.2 × 10^-10 g/kg ip, n=5, control 30.9): 16.8 ± 1.2 10^-2 × mm | SUPPRESSION ([1]; Exp. III, B6 mice, 1.6 × 10^-8 g/kg ip): 52 ± 14% | EAR SWELLING (± SEM) ([1]; Exp. III, B6 mice, 1.6 × 10^-8 g/kg ip, n=4, control 36.2): 17.5 ± 5.0 10^-2 × mm | SUPPRESSION ([1]; Exp. III, B6 mice, 1.6 × 10^-8 g/kg iv): 25 ± 21% | EAR SWELLING (± SEM) ([1]; Exp. III, B6 mice, 1.6 × 10^-8 g/kg iv, n=4, control 36.2): 27.2 ± 7.7 10^-2 × mm | SUPPRESSION ([1]; Exp. III, B6 mice, 1.6 × 10^-10 g/kg ip): 69 ± 13% | EAR SWELLING (± SEM) ([1]; Exp. III, B6 mice, 1.6 × 10^-10 g/kg ip, n=4, control 36.2): 11.4 ± 4.8 10^-2 × mm | SUPPRESSION ([1]; Exp. III, B6 mice, 1.6 × 10^-10 g/kg iv): 45 ± 12% | EAR SWELLING (± SEM) ([1]; Exp. III, B6 mice, 1.6 × 10^-10 g/kg iv, n=4, control 36.2): 20.0 ± 4.3 10^-2 × mm | SUPPRESSION ([1]; Exp. III, B6 mice, 1.6 × 10^-11 g/kg iv): 65 ± 9% | EAR SWELLING (± SEM) ([1]; Exp. III, B6 mice, 1.6 × 10^-11 g/kg iv, n=4, control 36.2): 12.8 ± 3.2 10^-2 × mm | SUPPRESSION ([1]; Exp. III, B6 mice, 1.6 × 10^-12 g/kg iv): 88 ± 9% | EAR SWELLING (± SEM) ([1]; Exp. III, B6 mice, 1.6 × 10^-12 g/kg iv, n=4, control 36.2): 4.4 ± 3.2 10^-2 × mm | ear swelling, in words ([1]; experiment III, extract dose 10^-12 g/kg): all but ablated | suppression at higher doses, in words ([1]; extract 10^-8 g/kg i.v.): less suppression

O=C1NCCN1c1ncc([N+](=O)[O-])s1 [niridazole, 1-(5-nitro-2-thiazolyl)-2-imidazolidinone, reference compound]
effect on inflammation related to delayed hypersensitivity, in words [2]: suppression of inflammation related to delayed hypersensitivity including retardation of allograft rejection | suppression of ear swelling, in words ([1]; 10^-3 to 10^-4 g/kg niridazole intraperitoneally): Significant suppression of ear swelling | SUPPRESSION ([1]; Exp. I, F1 mice, niridazole dose 10^-2, ip): 37 ± 3% | EAR SWELLING (± SEM) ([1]; Exp. I, F1 mice, niridazole dose 10^-2, ip, n=5, control 26.9): 17.0 ± 0.9 10^-2 × mm | SUPPRESSION ([1]; Exp. I, F1 mice, niridazole dose 10^-3, ip): 66 ± 4% | EAR SWELLING (± SEM) ([1]; Exp. I, F1 mice, niridazole dose 10^-3, ip, n=5, control 26.9): 9.1 ± 1.2 10^-2 × mm | suppression at higher doses, in words ([1]; niridazole 10 mg/kg): less suppression | suppression of delayed hypersensitivity-type reactions, in words ([3]; human studies by Webster et al): corroborated the suppression of delayed hypersensitivity-type reactions | effect on inflammations, in words ([3]; patients undergoing prolonged treatment, Mahmoud et al): suppressed inflammations | mean granuloma area ([4]; Table III experiment): 11 ± 2.6 μ^2 × 10^3 | mean granuloma area ([4]; Table IV experiment): 8 ± 2.6 μ^2 × 10^3
